Measured values published in patent publication US7026292B1, “Compositions and therapeutic methods using morphogenic proteins and stimulatory factors” (Stryker Corporation, priority 1995, dated 2006).

System: FRC (fetal rat calvarial) cells
Assay: Alkaline phosphatase (AP) activity assay in FRC cells
Format: cell-based
Conditions: for MPSF function in concert with OP-1 (figure title): OP-1 200 ng/ml (FIGS. 5–10); for Stimulation of OP-1 osteogenic induction (figure title): OP-1 500 ng/ml (FIG. 1, FIG. 11)
Description: A preferred assay for testing potential MPSFs with OP-1 for osteogenic activity is the alkaline phosphatase (AP) enzymatic assay. AP is an osteoblast differentiation marker in primary osteoblastic FRC. (fetal rat calvarial) cells. The OP-1-stimulated AP activity is the result of increased steady-state AP mRNA levels as measured by Northern analysis. The procedure is generally as follows.
Primary osteoblast cell cultures were prepared from fetal rat calvaria using published procedures (M. A. Aronow et al., J. Cell Physiol., 143, pp. 213–221 (1990); T. K. McCarthy et al., J. Bone Miner. Res., 3, pp. 401–8 (1988)). Briefly, cells were harvested by sequential collagenase digestions of the calvarium and cells from digestions III to V were pooled. Fetal rat calvaria (FRC) cells were plated in complete medium (MEM, alpha; GIBCO/BRL, Grand Island, N.Y.) containing 10% fetal bovine serum, vitamin C (100 μg/ml), and antibiotics (100 U/ml penicillin, and […]). Cultures were incubated at 37° C. with 95% air/5% CO2 for several days to reach confluence. Cells were then subcultured for experimentations.
FRC cells were subcultured in 48-well plates (COSTAR, Cambridge, Mass.) in complete MEM medium with 10% fetal bovine serum until confluent in about 4 days. Confluent cells were rinsed with Hank's balanced salt solution (HBSS) and treated with serum-free α-MEM medium (with 0.1% BSA, 100 U/ml penicillin, and […]) containing the appropriate solvent vehicle (50% acetonitrile/0.1% trifluoroacetic acid for OP-1 treatment or 0.1N acetic acid for IGFI treatment) or recombinant human OP-1, or IGFI at the concentrations indicated. Solvent vehicle concentration in the culture medium never exceeded 0.1%. At the end of treatment, cells were lysed and total cellular alkaline phosphatase activity was measured (typically after 48 hours of treatment).
Total cellular alkaline phosphatase activity was determined using a commercial assay kit (Sigma, St. Louis, Mo.). Cell lysates were prepared by aspirating the medium from the 48-well plate, rinsing the cells with ice-cold PBS, and lysing the cells with 0.05% Triton X-100 and sonication for 60 sec. Alkaline phosphatase activity in the lysates was measured in 2-amino-2-methyl-1-propanol buffer (pH 10.3) with p-nitrophenyl phosphate as substrate at 37° C. Reactions were performed in 96-well plates for 1–2 h. Following color development, reactions were terminated with 0.5N NaOH. Absorbance of the reaction was measured at 405 nm using a Hewlett Packard Genenchem automatic plate reader. Total protein level in the lysates was measured according to Bradford (M. Bradford, Anal. Biochem., 72, pp. 248–54 (1976)) using bovine serum albumin as a standard. Alkaline phosphatase activity was expressed as nmol p-nitrophenol liberated per microgram of total cellular protein. […]
At least four experimental groups were tested: control cells treated with no OP-1 or MPSF; group I cells treated with increasing concentrations of MPSF alone; […]; and group III cells, […] concentrations of the MPSF.

[1] = 0.5 nM HC + 200 ng/ml OP-1, 48 hours (FIG. 7)
[2] = PG 5 nM + 200 ng/ml OP-1, 48 hours (FIG. 10)
[3] = IGF-I + OP-1 500 ng/ml (FIG. 1)
[4] = 0.05 nM or 0.5 nM insulin + 200 ng/ml OP-1, 48 hours (FIG. 8)

In the case of C[C@]12CCC(=O)C=C1CC[C@@H]1[C@@H]2[C@@H](O)C[C@@]2(C)[C@H]1CC[C@]2(O)C(=O)CO [HC, hydrocortisone, reference compound], the “Level of AP activity relative to cells treated with OP-1 alone” value [1] is reported as “about two-fold”, the “Level of AP activity relative to control cells” value [1] is reported as “about three-fold” and the “MPSF function in concert with OP-1 (figure title)” value (shortened to “MPSF function in concert”) (AP activity in FRC cells) is reported as “is a MPSF in concert with OP-1”. For the same molecule, the “Stimulation of AP activity by HC alone” value (HC 0.05–5 nM alone, 48 hours (FIG. 7)) was “did not stimulate AP activity”.
With CC(=O)[C@H]1CC[C@H]2[C@@H]3CCC4=CC(=O)CC[C@]4(C)[C@H]3CC[C@]12C [PG, progesterone, reference compound] the “MPSF function in concert” value (AP activity in FRC cells) was “is a MPSF in concert with OP-1”, the “Level of AP activity relative to cells treated with OP-1 alone” value [2] was “about two-fold” and the “Level of AP activity relative to control cells” value [2] was “about four-fold”. The “Stimulation of AP activity beyond control cells” value (PG alone 5 nM, 48 hours (FIG. 10)) was “about three-fold”.
For “IGF-I: insulin-like growth factor I, tested as morphogenic protein stimulatory factor (MPSF)”, the “Stimulation of OP-1 osteogenic induction (figure title)” value (AP activity in FRC cells) was “stimulates OP-1 osteogenic induction”, the “Potentiation of OP-1-stimulated AP activity by IGF-I” value (IGF-I 10 ng/ml, OP-1 100 ng/ml (FIG. 3)) was 1.5–2 fold and the “Synergistic effect on AP level, timing of IGF-I addition” value (from here on “Synergistic effect on AP level, timing”) (IGF-I 25 ng/ml added 6 h or later after OP-1 500 ng/ml, 48 h (FIG. 4)) was “reduced significantly”. For the same molecule, the “Maximum enhancement of OP-1-stimulated AP activity by IGF-I” value (IGF-I 25 ng/ml, OP-1 200 ng/ml (FIG. 3)) was “about 2.5 fold”, the “Stimulation of AP activity by IGF-I in the absence of OP-1” value (IGF-I 1–100 ng/ml, no OP-1 (FIG. 3)) was “did not stimulate AP activity” and the “Enhancement of OP-1-stimulated AP activity by IGF-I” value [3] was 3–4 fold. The “Kind of stimulatory effect of IGF-I on OP-1-stimulated AP activity” value [3] was “synergistic”, the “Potentiation of OP-1-stimulated AP activity at higher IGF-I concentrations” value (IGF-I above 25 ng/ml (up to 100 ng/ml) with OP-1 (FIG. 3)) was “no longer potentiates” and the “Synergistic effect on AP level, timing” value (OP-1 500 ng/ml and IGF-I 25 ng/ml added simultaneously, 48 h (FIG. 4)) was “maximum synergistic effect”. The “Stimulation of AP activity by IGF-I alone” value (exogenous IGF-I alone up to 300 ng/ml, no OP-1 (FIG. 1)) was “did not stimulate AP activity” and the “Synergistic effect on AP level, timing” value (pre-incubation with IGF-I 25 ng/ml for 24 h followed by OP-1 500 ng/ml) was “abolishes the synergistic effect”.
“IGF-II: member of the IGF growth factor family” was tested, and the “Stimulation of OP-1 osteogenic induction (figure title)” value (AP activity in FRC cells) was “does not stimulate OP-1-induced osteogenic induction”, the “Effect of IGF-II on OP-1-stimulated increase in AP activity” value (IGF-II 10–300 ng/ml + OP-1 500 ng/ml (FIG. 11)) was “neither enhanced nor inhibited” and the “Effect of IGF-II on the synergistic effect of IGF-I on OP-1” value (IGF-II (925 ng/ml as printed) + IGF-I 25 ng/ml + OP-1 500 ng/ml) was “does not further potentiate”.
In the case of TGF-β, the “Stimulation of OP-1-induced osteogenic induction (figure title)” value (AP activity in FRC cells, OP-1 100, 200 or 500 ng/ml (FIG. 12)) is reported as “does not stimulate OP-1-induced osteogenic induction”, the “Synergistic effect of TGF-β with OP-1 on AP activity” value (TGF-β 0.05–3.0 ng/ml with OP-1 (FIG. 12)) is reported as “did not exhibit any synergistic effect” and the “Stimulation of AP activity by TGF-β alone” value (TGF-β alone, no OP-1 (FIG. 12)) is reported as “did not stimulate AP activity”.
“hGH: growth hormone (hGH), purchased from Sigma” was tested, and the “MPSF function in concert” value (AP activity in FRC cells) was “is a MPSF in concert with OP-1”, the “Induction of AP activity over OP-1 alone” value (all hGH concentrations tested (10–1000 ng/ml) + 200 ng/ml OP-1, 48 hours (FIG. 6)) was “stimulated the induction of AP activity” and the “Concentration dependence of hGH stimulation of AP activity” value (higher versus lower hGH concentrations + 200 ng/ml OP-1, 48 hours (FIG. 6)) was “more of a stimulatory effect”.
insulin: insulin, purchased from Sigma was tested, and the “Level of AP activity relative to cells treated with OP-1 alone” value [4] was “about two-fold”, the “Level of AP activity relative to control cells” value [4] was “about four-fold” and the “MPSF function in concert” value (AP activity in FRC cells) was “is a MPSF in concert with OP-1”. The “Stimulation of AP activity by insulin alone” value (insulin 0.05–5 nM alone, 48 hours (FIG. 8)) was “did not stimulate AP activity”.
